In US7235256B2, “Method of preventing parturient hypocalcemia in animals and compositions used therein” (RJ Innovation, priority 1999, dated 2007):

Experiments:
non-lactating (dry) cows = assay: EDTA-infusion test for resistance to hypocalcemia; type: in vivo, cow; settings: 8 EDTA-tests at 10 days intervals, normal = ionised blood calcium above 1 mmol/l
Source text: To investigate the induction of hypocalcemia by intravenous infusion of EDTA in cows, 6 non-lactating (dry) cows were used in this study. Three of these cows were untreated (cow Nos. 168, 169 and 170) and the other three cows (cow Nos. 172, 175 and 176) had been subjected to a pre-treatment consisting of daily doses of anionic salts (Wang and Beede, 1992). This pre-treatment is known to be effective in preventing milk fever. The latter cows were rumen fistulated to facilitate precise daily dosages of the anionic salts.
All cows were tested for resistance to hypocalcemia by the EDTA-infusion technique. A total of 8 EDTA-tests were performed per cow according to the standardised method of Mellau et al. (1998), at 10 days intervals. With the standardised test, infusion of EDTA was performed until the cow went down involuntarily, due to muscle weakness caused by the induced hypocalcemia. The time taken from this point and until the cow regained normal blood calcium concentration, which is defined as an ionised blood calcium value above 1 mmol/l, was recorded. This time is considered to represent the cows' calcium mobilisation rate and therefore also the cows' ability to resist hypocalcemia. The infusion periods varied between individual cows, but were typically in the range of 2–4 hours. […]

dairy cows = assay: Repeated oral zinc oxide administration, serum calcium response; type: in vivo, cow; settings: lactating cows
Method: Six dairy cows were used in this study: Two lactating cows and two dry cows were treated with zinc oxide by mouth at 120 mg/kg body weight, whereas two lactating cows served as untreated controls. Four doses of zinc oxide were given to the treated cows at one-week intervals. Venous blood samples were taken and serum stored at −37° C. for later total calcium determinations. For this purpose blood samples were taken daily from all six cows one hour after morning feeding. Extra samples were taken 5, 11, 23 and 35 hours after zinc oxide administration.

[1] = zinc oxide by mouth 120 mg/kg body weight

O=C(O)CN(CCN(CC(=O)O)CC(=O)O)CC(=O)O [EDTA, ethylenediaminetetraacetic acid]
time to regain normal blood calcium concentration (recovery time) after EDTA infusion (non-lactating (dry) cows): greatly improved

[O]=[Zn] [zinc oxide]
change of calcium balance response with number of doses (dairy cows; four doses at one-week intervals): less and less affected
minimum serum calcium concentration (dairy cows; [1]): 1.4 to 1.6 mmol/L
time of minimum serum calcium after administration (dairy cows; [1]): about 24 hours
